# Laboratory results taken from US20190322981A1, “MEANS AND METHODS FOR THE GENERATION OF OLIGODENDROCYTES” (Westfaelische Wilhelms-Universitaet Muenster, priority 2016, published 2019).
# Assays:
# [1] = test system: iOL (SON-transduced human iPSC-derived NPC); assay: Compound screen: differentiation-promoting effect of drug candidates on iOL (O4 and MBP immunocytochemistry); assay type: cell-based; details: for toxic influence on iOL: at higher concentrations (tested 0.5, 1, 5 μM); for formation of MBP+ mature iOL relative to T3-treated cultures: drug candidate at 0.5, 1, 5 μM; for effect on formation of O4+ iOL compared to DMSO control: T3 60 ng/ml or drug candidate at 0.5, 1, 5 μM
# Protocol: For immunocytochemical analysis, an equal volume of 4% PFA in PBS was added to the culture medium and cells were pre-fixed for 10 min at room temperature (RT). After removing the supernatant, cells were fixed for an additional 15 minutes with 4% PFA in PBS and washed three times with PBS. Fixed cells were permeabilized by adding 0.2% Triton X-100 (Sigma) in PBS for 15 min at RT (This step was omitted for NG2, O4 and GalC staining). Subsequently, blocking was performed by incubating the cells with 5% normal goat serum (NGS; Gibco) and 5% fetal calf serum (FCS; Gibco) for 30 min at RT. Primary antibodies were applied overnight at 4° C. in blocking solution. Following three washing steps with PBS, cells were incubated with Alexa Fluor conjugated secondary antibodies diluted in PBS for 1 h at RT. Cells were subsequently washed three times with PBS, including a Hoechst counterstaining for nuclei in the second washing step. Cells on glass coverslips were mounted in Dako Fluorescent Mounting Medium (Dako) and visualized on a Zeiss LSM700 confocal microscope. Cells on plastic cell culture plates were visualized on a Leica DM16000 B inverted microscope.
# To assess the sensitivity of iOL towards differentiation promoting drugs, iPSC-derived NPC were transduced with concentrated SON virus particle as described above. Viral medium was removed after 24 h and replaced with GIM lacking T3. The end of the virus infection period was termed day 0. At day 5 of differentiation, cells were detached, singularized and reseeded at densities of 5×10^4 cells in matrigel-coated 48-well plates or 1.5×10^5 cells in 24-well plates containing matrigel-coated glass coverslips. Cells were allowed to recover in minimum DM consisting of DMEM-F12 with 1:200 N2 supplement, 1:100 B27 supplement lacking vitamin A, 1% penicillin/streptomycin/glutamine, 200 μM AA and 100 μM dbcAMP. After 24 h cells were treated with vehicle alone (0.01% (v/v) DMSO) as a negative control, 60 ng/ml T3 as a positive control, or with a drug candidate dissolved in DMSO at three different concentrations (0.5 μM, 1 μM, 5 μM) in minimum DM. The drug candidates comprised miconazole (Sigma), clobetasol (TCI), benztropine (Sigma), indometacin (Sigma), clemastine (Sigma) and oxybutynin (Sigma). Medium was changed every other day and cells were fixed in 4% PFA for immunocytochemical analysis after 21 days of treatment. Investigators were blinded for immunocytochemical analysis.
# Identification of drugs inducing remyelination via promotion of oligodendroglial differentiation presents a promising approach for the treatment of demyelinating disorders like MS. Thus, we assessed whether iOL can be utilized to identify compounds promoting oligodendroglial differentiation. We selected six drug candidates (miconazole, clobetasol, benztropine, indometacin, clemastine and oxybutynin) which have been previously described to promote differentiation or myelination of rodent OL^1, 18-20. iOL cultures were treated with either vehicle (0.01% (v/v) DMSO) as a negative control, thyroid hormone (T3) as a positive control, or the drug candidate dissolved in DMSO at three different concentrations (0.5 μM, 1 μM, 5 μM) (FIG. 7a-d).
# [2] = test system: MAPT-OL (iOL carrying the N279K MAPT mutation); assay: Stress-induced cell death: rotenone on O4+ iOL, cleaved CASPASE 3 / O4 double-staining; assay type: cell-based, human; details: rotenone 100, 250 and 500 nM, 48 h; all results combined, control cultures set to 100%
# Protocol: To examine the effect of rotenone (Sigma) on the viability of iOL derived from either N279K MAPT or Ctrl cells O4^+ iOL were purified using the MACS technology after 21 days of differentiation and replated at a density of 8×10^3 cells per well into matrigel-coated 96-well plates. After another 6 days in DM, cells were treated with either vehicle (0.01% (v/v) DMSO) or rotenone dissolved in DMSO at three different concentrations (100 nM, 250 nM, 500 nM). […] Investigators were blinded for immunocytochemical analysis.
# After 28 days of differentiation, O4^+ iOL harboring the N279K mutation (MAPT-OL) were morphologically indistinguishable from their gene corrected control cell lines (MAPT-GC-OL) (FIG. 7e) and featured similar differentiation efficiencies among all cell lines included (FIG. 7f). We next set out to investigate whether the N279K MAPT mutation induces an altered expression of TAU isoforms in iOL. We purified O4^+ iOL using FACS before RNA sample preparation. […] FTDP-17 patients display widespread neurodegeneration due to increased cellular vulnerability. […]
compound,measurement,setting,value
"N[C@@H](Cc1cc(I)c(Oc2ccc(O)c(I)c2)c(I)c1)C(=O)O [T3, Triiodo-L-Thyronine]",O4+ cells,"[1]; 60 ng/ml T3 (positive control), minimum DM, 21 days, DMSO control 14.01±2.89%",28.25±3.47%
CN1[C@@H]2CC[C@H]1C[C@@H](OC(c1ccccc1)c1ccccc1)C2 [benztropine],toxic influence on iOL,[1]; 21 days,toxic influence
same,formation of MBP+ mature iOL relative to T3-treated cultures,"[1]; minimum DM, 21 days",comparable to T3-treated cultures
CN1CCC[C@@H]1CCO[C@](C)(c1ccccc1)c1ccc(Cl)cc1 [clemastine],effect on formation of O4+ iOL compared to DMSO control,"[1]; minimum DM, 21 days",failed to promote the formation of O4^+ iOL
same,toxic influence on iOL,[1]; 21 days,toxic influence
C[C@H]1C[C@H]2[C@@H]3CCC4=CC(=O)C=C[C@]4(C)[C@@]3(F)[C@@H](O)C[C@]2(C)[C@@]1(O)C(=O)CCl [clobetasol],formation of MBP+ mature iOL relative to T3-treated cultures,"[1]; minimum DM, 21 days",comparable to T3-treated cultures
Clc1ccc(COC(Cn2ccnc2)c2ccc(Cl)cc2Cl)c(Cl)c1 (stereo not drawn) [miconazole],increase of MBP+ cells compared to DMSO control cultures,"[1]; 1 μM, minimum DM, 21 days",almost tenfold increase
same,toxic influence on iOL,[1]; 21 days,toxic influence
same,toxic effect on iOL,[1]; fivefold higher concentration than the effective 1 μM,toxic effect
same,"differentiation-promoting effect on iOL, ranked among the tested compounds",[1]; six drug candidates compared,strongest effect on iOL
CCN(CC)CC#CCOC(=O)C(O)(c1ccccc1)C1CCCCC1 (stereo not drawn) [oxybutynin],effect on formation of O4+ iOL compared to DMSO control,"[1]; minimum DM, 21 days",failed to promote the formation of O4^+ iOL
C=C(C)[C@H]1Cc2c(ccc3c2O[C@@H]2COc4cc(OC)c(OC)cc4[C@@H]2C3=O)O1 [rotenone],average increase of cell death (cleaved CASPASE-3+ iOL) in MAPT-OL,[2],48.9±18.7%
